Experimental data reported in US7776851B2, “Use of neurokinin antagonists in the treatment of urinary incontinence” (Novartis AG, priority 2003, dated 2010).

Key:
conscious guinea pigs = experiment: 5-HTP-stimulated micturition (overactive urinary bladder responses) in conscious guinea pigs; type: in vivo, guinea pig; details: for decrease of micturition volume / decrease of voiding frequency: one hour prior to 5-HTP (10 mg/kg s.c.), assessed over 17 hours, mean±SEM
Method: In conscious guinea pigs, an experimental paradigm is applied to stimulate micturition through subcutaneous administration of 5-hydroxytryptophan (5-HTP, 10 mg/kg). The measurement of both voiding frequency and micturition volume is used to quantify the effects of the compound of formula II (Belis, et al 1996). Vehicle or the compound of formula II (1 and 3 mg/kg) are dosed orally one hour prior to the stimulation with 5-HTP.
The effects of vehicle and the compound of formula II are assessed over 17 hours in 4 to 8 animals. […] The compound of formula II attenuates the overactive bladder responses upon stimulation with 5-HTP.
The effects are statistically significant at both doses tested (p<0.05; RM ANOVA, post-hoc Tukey test). See also FIG. 1.

[1] = tested on: longitudinal muscle-nerve preparations from the guinea-pig urinary bladder; experiment: Substance P-stimulated detrusor contractility, organ bath; type: cell-based
Method: Detrusor contractility is tested in longitudinal muscle-nerve preparations from the guinea-pig urinary bladder (Mackenzie and Burnstock 1984). In organ bath studies, isometric contractile responses are evoked by cumulative application of substance P (0.1 nM up to 30 μM). Substance P stimulates contractions in a concentration-dependent fashion (pD2=6.68±0.23; mean±SEM; n=5 preparations).

[2] = 5-HTP 10 mg/kg subcutaneous, over 17 hours

Q: With `N[C@@H](Cc1c[nH]c2ccc(O)cc12)C(=O)O` [S-HTP, 5-hydroxytryptophan, reference compound] as the molecule, how does the “increase of micturition volume as compared to control animals” value (conscious guinea pigs; [2]) read?
A: The value was 4.5 fold.

Q: And the “increase of voiding frequency as compared to control animals” value (conscious guinea pigs; [2])?
A: The value was 2.7 fold.

Q: How did the “decrease of micturition volume” value (conscious guinea pigs; 1 mg/kg p.o.) turn out when `CN(C(=O)c1cc(C(F)(F)F)cc(C(F)(F)F)c1)[C@@H](/C=C/C(=O)N[C@@H]1CCCCNC1=O)Cc1ccc(Cl)c(Cl)c1` [compound of formula II, (4R)-4-[N′-methyl-N′-(3,5-bistrifluoromethylbenzoyl)amino]-4-(3,4-dichlorobenzyl)-but-2-enoic acid N-[(R)-epsilon-caprolactam-3-yl]-amide] was run?
A: The value was 32.9%±4.5%.

Q: And the “decrease of voiding frequency” value (conscious guinea pigs; 1 mg/kg p.o.)?
A: Its value is 45.4%±7.1%.

Q: What about the “decrease of micturition volume” value (conscious guinea pigs; 3 mg/kg p.o.) of the same molecule?
A: Its value is 36.6%±6.2%.

Q: What about the “decrease of voiding frequency” value (conscious guinea pigs; 3 mg/kg p.o.) of the same molecule?
A: The value was 26.2%±7.1%.

Q: What about the Schild plot slope ([1]; 10 nM, 100 nM and 1000 nM vs substance P) of the same molecule?
A: Its Schild plot slope is −0.98.

Q: And the “pA2 (Schild plot analysis), inhibition of substance P-evoked contractile responses” value ([1]; 10 nM, 100 nM and 1000 nM, competitive, substance P 0.1 nM up to 30 μM cumulative)?
A: Its value is 7.97.

Q: How did the “pD2, stimulation of isometric contractions” value ([1]; cumulative application 0.1 nM up to 30 μM, mean±SEM, n=5 preparations) turn out when substance P [reference compound] was run?
A: Its value is 6.68±0.23.
